Laboratory results reported in PubChem BioAssay (NCI).
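Interpolation was linear, between the two tested concentrations surrounding the appropriate level; five concentrations were tested over 48 hours in 96-well plates. The concentration for full growth arrest is given as TGI.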 Where a SMILES comes first, the peptide text is derived from it. [ ]: non-standard residue; d: D form. The star is where a group is joined. ξ: configuration not given here. Phe(4-NO2) = N[CH](Cc1ccc([N+](=O)[O-])cc1)C(=O)O; ξF = NC(Cc1ccccc1)C(=O)O; Cbz = O=C(OCc1ccccc1)*; Boc = CC(C)(C)OC(=O)*; Aib = CC(C)(N)C(=O)O; OBn = c1ccc(CO*)cc1

Key:
Assay in all cases: NCI anticancer screen, dose series, 48 h
[1] = test system: SK-MEL-5 melanoma
[2] = test system: SK-OV-3 ovarian
[3] = test system: TK-10 renal
[4] = test system: EKVX NSCLC

Row | SMILES | TGI [1] [µM] | TGI [2] [µM] | TGI [3] [µM] | TGI [4] [µM]
1 | Cc1ccc2c(=O)cc(-c3csc4ccccc34)[nH]c2n1 | 1.05 | > 32 | 9.78 | 
2 | COc1ccc2c(c1)O[C@@H]1C(O)Oc3cc(OC)c(OC)cc3[C@]1(O)C2=O (stereo not given in full) | 72.4 | > 100 | > 100 | > 100
3 | CC(=O)NNc1nc(C)c(C(/C=C/c2ccc3c(c2)OCO3)=N/Nc2ccccc2)s1 | > 100 | > 100 | > 100 | > 100
4 | COc1ccc(N[C@H](CS(=O)c2ccc(C)cc2)c2ccc(F)cc2)cc1 (stereo not given in full) | > 100 | > 100 | > 100 | > 100
5 | COc1cc2c3cc1Oc1c(O)c(OC)cc4c1[C@H](Cc1ccc(cc1)Oc1cc(ccc1O)C[C@H]3N(C)CC2)N(C)CC4 | 16.6 | 79.3 | 48.6 | 48.1
6 | Oc1ccc(Cl)cc1C1=N/C(=N\CN2CCN(C/N=C3/N=C(c4cc(Cl)ccc4O)CC(c4ccccc4)N3)CC2)NC(c2ccccc2)C1 (stereo not given) | > 100 | > 100 | > 100 | > 100
7 | CC(C)(CN)CN | > 100 | > 100 | > 100 | > 100
8 | OC(C1CCC=NN1C(O)(C(F)(F)F)C(F)(F)F)(C(F)(F)F)C(F)(F)F (stereo not given) | > 10 | > 10 | > 10 | > 10
9 | N=C(N)SCCON1C(=O)c2ccccc2C1=O | > 100 | > 100 | > 100 | > 100
10 | O=C(NCCN(CCNC(=O)c1cccc(=O)n1O)CCN(CCNC(=O)c1cccc(=O)n1O)CCNC(=O)c1cccc(=O)n1O)c1cccc(=O)n1O | > 100 | > 100 | > 100 | 
11 | NCCC(N)C(=O)O (stereo not given) | > 100 | > 100 | > 100 | > 100
12 | Cn1c(=O)c2c(nc(NCCCCl)n2CC(=O)O)n(C)c1=O | > 100 | > 100 | > 100 | > 100
13 | Cc1c(C)c(C)c(-n2[nH]c(=O)n(C)c2=O)c(C)c1C | > 100 | > 100 | > 100 | > 100
14 | Cc1ccc(C)n2c1nc1ccc3ccccc3c12 | > 100 | > 100 | > 100 | > 100
15 | CCC(C)[C@H](NC(=O)N[C@H](C)c1ccccc1)C(=O)OC (stereo not given in full) | > 100 | > 100 | > 100 | > 100
16 | CC(C)(C)OC(=O)n1cc(C2CNC(=O)C23CCC(=O)N3Cc2ccccc2)c2ccccc21 (stereo not given) | 31.9 | 58.3 | 44.4 | 54.6
17 | c1ccc(CNc2c3c(nc4ccccc24)CCC3)cc1 | 24.4 | 36.2 | 33.6 | 42.9
18 | CC(=O)O/C=C\OC1CCCC1(c1ccccc1)c1ccccc1 (stereo not given) | 7.19 | 27.6 | 9.33 | 20.7
19 | S=C1c2ccccc2NC(=NC2CCCC2)C2CSCN12 (stereo not given) | > 100 | > 100 | > 100 | > 100
20 | c1ccc2c(-c3cnc(-c4c[nH]c5ccccc45)cn3)c[nH]c2c1 | > 100 | > 100 | > 100 | > 100
21 | COC1C(O)CC(OC2C(C)OC(Oc3cc(O)c4c(O)c5c(cc4c3)C[C@@H]([C@H](OC)C(=O)[C@@H](O)[C@@H](C)O)[C@H](OC3CC(OC4CC(OC6CC(C)(O)C(O)C(C)O6)C(O)C(C)O4)C(O)C(C)O3)C5=O)CC2OC(C)=O)OC1C (stereo not given in full) | > 100 | > 100 | > 100 | > 100
22 | COc1ccc(N(C(=O)Nc2ccc(Cl)c(Cl)c2)c2ccccc2)cc1 | > 10 | > 10 | > 10 | > 10
23 | O=c1[nH]nc(Cc2ccccc2)n1/N=C/c1c[nH]c2ccccc12 | > 100 | > 100 | > 100 | > 100
24 | COc1cccc(N2C(=O)C3c4[nH]c5ccccc5c4C4c5ccccc5CCC4C3C2=O)c1 (stereo not given) | > 10 | > 7.28 | > 10 | > 10
25 | Cc1ccc([N+](=O)[O-])cc1S(=O)(=O)Nc1ccc(C2=NN(c3ccc([N+](=O)[O-])cc3[N+](=O)[O-])C(c3ccccc3)C2)cc1 (stereo not given) | 25.1 | 65.8 | 61.8 | 34.6
26 | CCC(CCCN)Nc1cc(OC)cc2cccnc12 (stereo not given) | > 100 | > 100 | > 100 | > 100

Row | SMILES | TGI [1] [µM] | TGI [2] [µM] | TGI [3] [µM] | TGI [4] [µM]
27 | CN(C)C(=S)N/N=C\C=N/NC(=S)N(C)C | > 100 | > 100 | > 100 | > 100
28 | Brc1ccc(N=NN2CCCCC2)cc1 | > 100 | > 100 | > 100 | > 100
29 | COC(=O)CCC(NC(=O)OC(C)(C)C)C(=O)NC(Cc1ccc([N+](=O)[O-])cc1)C(=O)NCC(=O)OCc1ccccc1 (stereo not given) (Boc-Glu(OMe)-[Phe(4-NO2)]-Gly-OBn; configuration not given here) | > 100 | > 100 | > 100 | > 100
30 | Cc1cn(C2CC(n3cc(Cn4cc(F)c(=O)[nH]c4=O)nn3)C(CO)O2)c(=O)[nH]c1=O (stereo not given) | > 100 | > 100 | > 100 | > 100
31 | CCN1CC(C)Cn2c(=O)[nH]c3cc(Br)cc1c32 (stereo not given) | > 100 | > 100 | > 100 | 52
32 | COc1ccc2nc3cc(Cl)ccc3c(NCCCCCC(=O)NC(COc3cnc4c(ccc5cccnc54)c3)COc3cnc4c(ccc5cccnc54)c3)c2c1 |  | > 100 | 91.6 | > 100
33 | CCOC(C[Se]CC(OCC)OCC)OCC | 29.6 | > 100 | > 100 | > 100
34 | C=CC(=O)N1C/C(=C\c2ccc(N(C)C)cc2)C(=O)/C(=C/c2ccc(N(C)C)cc2)C1 | > 100 |  | > 100 | > 100
35 | CC1=NOC2(C1)/C(=N/O)CCC/C2=N\O (stereo not given) | > 100 | > 100 | > 100 | > 100
36 | CC(=O)OC[C@H]1O[C@@H](O[C@H]2[C@H](OC(C)=O)C=CO[C@@H]2COC(C)=O)C(OC(C)=O)[C@H]2OC(C)(C)O[C@H]21 (stereo not given in full) | > 100 | > 100 | > 100 | > 100
37 | COc1ccc(N2C=Nn3c(nc4sc(C)c(C)c4c3=O)C2)cc1 | > 100 | > 100 | > 100 | > 100
38 | CCN(CC)Cc1nc2sc3c(c2c(=O)n1-c1ccccc1)CCCC3 | 31.7 | 83.3 | 30.9 | 79.9
39 | CC(=O)NCCCCNCCCNC(C)=O | > 100 | > 100 | > 100 | > 100
40 | Cc1ccc(C(=O)OC[C@H]2CC[C@@H](n3cc(N(C)C4CCCCC4)c(=O)[nH]c3=O)O2)cc1 | 40.1 | > 100 | 95.2 | > 100
41 | C=CC[C@H]1[C@@H](O[Si](C)(C)C(C)(C)C)[C@H](n2ccc(=O)[nH]c2=O)O[C@@H]1CO[Si](C)(C)C(C)(C)C | 3.18 | 2.68 | 7.02 | 4.83
42 | COc1cc(-c2nc3cc(F)ccc3s2)ccc1O | > 100 | > 100 | > 100 | 53.5
43 | Cn1ccnc1S/C(=C\C=C(C#N)C#N)c1ccc(Cl)cc1 | 3.59 | 38.8 | 2.81 | 13.1
44 | CC(=O)c1ccc(N=Nc2ccc3nonc3c2N)cc1 | > 100 | > 100 | > 100 | > 100
45 | CN1CC2=C(OC(N)=C(C#N)C2c2cccs2)/C(=C/c2cccs2)C1 (stereo not given) | 14.4 | > 100 | > 100 | > 60.2
46 | Cn1ccnc1Sc1ccc(/C=N/NC(=O)c2ccccc2O)cc1[N+](=O)[O-] | > 100 | > 100 | > 100 | > 100
47 | COC(=O)CCCc1ccc2c(c1)CC1(C2)Cc2cc3c(cc2C1)CCCC3 | 41.2 | > 100 | > 100 | > 100
48 | CSc1c(C(=O)Nc2ccccc2)c(N)nn1-c1ccccc1 | > 100 | > 100 | > 100 | > 100
49 | COc1ccc(CCn2cnc3ccccc32)cc1 | > 100 | > 100 | > 100 | > 100
50 | CC(C)(NC(=O)OCc1ccccc1)C(=O)NC(Cc1ccccc1)C(=O)O (stereo not given) (Cbz-[Aib]-[ξF]-OH) | > 100 | > 100 |  | 
51 | Cc1cc2c(cc1Cl)Sc1nnc(Nc3ccccc3)n1S2(=O)=O | 53.8 |  | 43.6 | 34.3
52 | CC(C)(CO)CNc1cc(=O)[nH]c(N)n1 | > 100 | > 100 |  | > 100
